# Measured values as given in patent US8178506B2, “Oligomeric compounds and compositions for use in modulation of small non-coding RNAs” (Regulus Therapeutics Inc., priority 2003, dated 2012).
# In the oligonucleotide strings, read from the 5' end, every base follows the letter of its sugar. An asterisk marks phosphorothioate; unmarked linkages are phosphodiester. Other units and linkages are bracketed, terminal groups are in braces. A string of capitals states the bases alone. e = 2'-O-(2-methoxyethyl) (MOE); [5mC] = 5-methylcytosine; d = 2'-deoxy (DNA)
# What was measured:
# HuVECs = assay: Endothelial tube formation assay in HuVECs; conditions: 75 nM oligomeric compound, Table 56
# IGFBP-1 = IGFBP-1 mRNA expression in HepG2 cells; format: cell-based, human; conditions: Experiment 2, insulin treated: HepG2 cells transfected with oligomeric compound, 1 nM insulin for four hours; UTC + 1 nM insulin = 100
# Procedure: (§1) Approximately 28 hours after transfection, the cells are subjected to serum starvation for a period of 12 to 16 hours, using serum-free growth medium. Following serum starvation, cells are treated with 1 nM insulin (insulin-treated) or are left untreated (basal conditions) for approximately four hours. At the same time, untreated control cells in both plates are treated with 100 nM insulin to determine the maximal insulin response. Following insulin treatment (forty-eight hours after transfection), total RNA is harvested from all samples, and the amount of total RNA from each sample is determined using a Ribogreen assay (Invitrogen Corporation, Carlsbad, Calif.). Real-time PCR is performed on the total RNA samples using primer/probe sets for three insulin responsive genes: insulin-like growth factor binding protein-1 (IGFBP-1), cytosolic PEPCK (PEPCK-C), and follistatin. Gene expression levels obtained by real-time PCR are normalized for total RNA content in the samples.
# (§2) Oligomeric compounds of the present invention were tested for their effects on insulin signaling in HepG2 cells. HepG2 cells were plated at 7500 cells/well in collagen coated 96-well plates. The following day, cells were transfected with oligomeric compounds targeting miRNAs using 100 nM oligomeric compound in LIPOFECTIN™ (Invitrogen Corporation, Carlsbad, Calif.) in two 96-well plates. The oligomeric compounds were tested in triplicate on each 96-well plate, except for positive and negative controls, which were measured up to six times per plate. At the end of transfection, the transfection medium was replaced by regular growth medium. Twenty-eight hours post-transfection, the cells were subjected to overnight (sixteen to eighteen hours) serum starvation using serum free growth medium. Forty-four hours post-transfection, the cells in the transfected wells were treated with either no insulin (“basal” Experiment 1, for identification of insulin-mimetic compounds) or with 1 nM insulin (“insulin treated” Experiment 2, for identification of insulin sensitizers) for four hours. At the same time, in both plates, cells in some of the un-transfected control wells are treated with 100 nM insulin to determine maximal insulin response. At the end of the insulin or no-insulin treatment (forty-eight hours post-transfection), total RNA is isolated from both the basal and insulin treated (1 nM) 96-well plates, and the amount of total RNA from each sample is determined using a Ribogreen assay (Molecular Probes, Eugene, Oreg.). Real-time PCR is performed on all the total RNA samples using primer/probe sets for three insulin responsive genes: PEPCK-c, IGFBP-1 and follistatin. Expression levels for each gene are normalized to total RNA, and values+standard deviation are expressed relative to the transfectant only untreated control (UTC) and negative control compounds.
# (§3) Protocols for treatment of HepG2 cells and transfection of oligomeric compounds are as described in Example 18. Also as described in Example 18, forty-four hours post-transfection, the cells in the transfected wells were treated with either no insulin (“basal” Experiment 3 (below), for identification of insulin-mimetic compounds) or with 1 nM insulin (“insulin treated” Experiment 4 (below), for identification of insulin sensitizers) for four hours. At the same time, in both plates, cells in some of the un-transfected control wells are treated with 100 nM insulin to determine maximal insulin response. At the end of the insulin or no-insulin treatment (forty-eight hours post-transfection), total RNA is isolated from both the basal and insulin treated (1 nM) 96-well plates, and the amount of total RNA from each sample is determined using a Ribogreen assay (Molecular Probes, Eugene, Oreg.).
# PEPCK-c = PEPCK-c mRNA expression in HepG2 cells; format: cell-based, human; conditions: Experiment 2, insulin treated: HepG2 cells transfected with oligomeric compound, 1 nM insulin for four hours; UTC + 1 nM insulin = 100
# Procedure: as §1, §2, §3
# HeLa cells = assay: Cell cycle assay in HeLa cells; format: cell-based, human; conditions: HeLa cells
# follistatin = assay: Follistatin mRNA expression in HepG2 cells; format: cell-based, human; conditions: Experiment 2, insulin treated: HepG2 cells transfected with oligomeric compound, 1 nM insulin for four hours; UTC + 1 nM insulin = 100
# Procedure: as §1, §2, §3
# [1] = test system: BJ, B16-F10, T47D, T47Dp53 and HeLa cells; assay: Cell cycle assay (propidium iodide flow cytometry), cell line panel; format: cell-based; conditions: 150 nM oligomeric compound, 4.5 μg/ml LIPOFECTIN, after 72 hours, propidium iodide flow cytometry
# T47D cells = assay: Caspase-3 activity assay (apoptosis) in T47D cells; conditions: T47D cells, 200 nM, 48 hours, relative to untreated control
# [2] = 150 nM oligomeric compound, 24 hours, relative to untreated control (UTC = 100)
# [3] = 150 nM oligomeric compound, 48 hours after treatment, relative to untreated control (UTC=100)
# [4] = 150 nM, 48 hours, relative to untreated control
substance,measurement,setting,value
327875 (antisense eA*e[5mC]*eA*eA*e[5mC]*e[5mC]*eA*eG*e[5mC]*eT*eA*eA*eG*eA*e[5mC]*eA*e[5mC]*eT*eG*e[5mC]*e[5mC]*eA) [compound 327875],% Activity Relative to UTC (tube formation),HuVECs,71.4%
327882 (antisense eT*e[5mC]*eA*e[5mC]*eT*eT*eT*eT*eG*eT*eG*eA*e[5mC]*eT*eA*eT*eG*e[5mC]*eA*eA) [compound 327882],% Activity Relative to UTC (tube formation),HuVECs,107.1%
327884 (antisense eG*e[5mC]*eA*eA*eA*eA*eA*eT*eG*eT*eG*e[5mC]*eT*eA*eG*eT*eG*e[5mC]*e[5mC]*eA*eA*eA) [compound 327884],% Activity Relative to UTC (tube formation),HuVECs,78.6%
327894 (antisense eA*eT*eA*e[5mC]*eA*eT*eA*e[5mC]*eT*eT*e[5mC]*eT*eT*eT*eA*e[5mC]*eA*eT*eT*e[5mC]*e[5mC]*eA) [compound 327894],% Activity Relative to UTC (tube formation),HuVECs,100.0%
328342 (e[5mC]*eA*eA*eT*eT*dG*d[5mC]*dG*d[5mC]*dT*dA*d[5mC]*dA*dG*dA*eA*e[5mC]*eT*eG*eT) [compound 328342],IGFBP1 mRNA expression,IGFBP-1,98
same,PEPCKc mRNA expression,PEPCK-c,39
same,% cells aneuploid,HeLa cells; [2],67%
same,% cells in cell cycle phase G1,HeLa cells; [2],33%
same,% cells in cell cycle phase G2/M,HeLa cells; [2],238%
same,% cells in cell cycle phase S,HeLa cells; [2],95%
same,% cells in cell cycle phase subG1,HeLa cells; [2],192%
same,% cells in cell cycle phase: G1,HeLa cells; [3],55%
same,% cells in cell cycle phase: G2/M,HeLa cells; [3],225%
same,% cells in cell cycle phase: S,HeLa cells; [3],115%
same,% cells in cell cycle phase: aneuploid,HeLa cells; [3],107%
same,% cells in cell cycle phase: subG1,HeLa cells; [3],189%
same,% cells in cell cycle phase G1,HeLa cells; [4],96%
same,% cells in cell cycle phase G2/M,HeLa cells; [4],138%
same,% cells in cell cycle phase S,HeLa cells; [4],89%
same,% cells in cell cycle phase aneuploid,HeLa cells; [4],96%
same,% cells in cell cycle phase subG1,HeLa cells; [4],103%
same,Follistatin mRNA expression,follistatin,88
same,G1 (percentage of cells in phase of the cell cycle),[1],62.3%
same,G2/M (percentage of cells in phase of the cell cycle),[1],12.8%
same,S (percentage of cells in phase of the cell cycle),[1],24.9%
same,SubG1 (percentage of cells in phase of the cell cycle),[1],4.8%
same,aneuploid (percentage of cells),[1],15.2%
328377 (eT*e[5mC]*eA*e[5mC]*eT*d[5mC]*d[5mC]*dT*dA*dA*dA*dG*dG*dT*dT*e[5mC]*eA*eA*eG*eT; antisense) [compound 328377],IGFBP1 mRNA expression,IGFBP-1,247
same,PEPCKc mRNA expression,PEPCK-c,182
same,Follistatin mRNA expression,follistatin,159
same,Fold Increase over UTC (caspase activity),T47D cells,0.7
